Holding throughout (type): functional
Assay [1] relates to Mus musculus. Description: Antidepressant like activity in Swiss albino mouse assessed as immobility time at 20 mg/kg, ip administered 30 mins prior to test and measured last 4 mins of 6 mins test by forced swimming test (reference value: 162.71 +/- 6.8 secs).
The test system of assay [2] is Mus musculus. Description: Antidepressant like activity in Swiss albino mouse assessed as immobility time at 10 mg/kg, ip administered 30 mins prior to test and measured last 4 mins of 6 mins test by forced swimming test (reference value: 162.71 +/- 6.8 secs).
Assay [3] deals with Mus musculus. Description: Antidepressant like activity in Swiss albino mouse assessed as immobility time at 5 mg/kg, ip administered 30 mins prior to test and measured last 4 mins of 6 mins test by forced swimming test (reference value: 162.71 +/- 6.8 secs).

In the case of `CN(C)CCCN1c2ccccc2CCc2ccccc21` [IMIPRAMINE], the Time in the assay with Mus musculus [1] worked out at 77.81 s; in the assay with Mus musculus [2], 119.63 s; in the assay with Mus musculus [3] it was 170.42 s.

These data come from ChEMBL document CHEMBL4145534, “Computer-aided insights into receptor-ligand interaction for novel 5-arylhydantoin derivatives as serotonin 5-HT7 receptor agents with antidepressant activity” (Eur J Med Chem, 2018).
